Experiments:
[1] = tested on: human multilayered epidermis; assay: Glycerol film retention on in vitro human multilayered epidermis (MTT cell viability); format: cell-based
Procedure: In the absence of any specific in vivo model to study the duration of the film retention by a biological surface, an in vitro model of human multilayered epidermis was used to evaluate the effects of the addition of non-cytotoxic concentrations of different PCD-rich plant extracts, either singly or in different associations, on glycerol film retention. Human epidermis was grown on a permeable polycarbonate filter (1 cm diameter) and was kept on a sponge soaked with culture medium, its outer surface remaining in contact with air, as is the case in vivo. Through capillary action, the culture medium diffuses through the polycarbonate filter and supplies nourishment to the epidermal cells to keep those cells alive.
Inserting one or two additional polycarbonate filters increases the distance between the culture medium and the cells; the amount of available medium, which reaches the cells, then decreases, and in absence of nutrients and hydration, the cells die. […] The percentage of live cells is proportional to the duration of retention of the glycerol film by the epidermal surface.
Various glycerol preparations containing test products (mainly PCD-rich plant extracts), at concentrations varying between 0.1 and 5.0%.
Quantity of Test Product Applied Per Epidermis: 20 μl
Glycerol preparations were directly applied on the epidermis as thin layer with the help of a pipette (n=6 per concentration): the epidermis was placed on two filters and the test product was applied on the epidermis surface. The filters were kept on a sponge, which was inserted in a petri dish containing an appropriate quantity of medium to nourish the cells. […]
The cell viability was scored as follows: • Score 4: 100% cells (compared to the controls) with intense blue color. • 3: Approximately 75% live cells with dark blue color. • 2: Approximately 50% live cells with medium blue color. • 1: Approximately 25% live cells with light blue color. • 0: No live cells, whitish epidermis color. […]

diabetic ulcers = details: human, in vivo
Procedure: Samples of wound fluid (100 μl) were collected at hourly intervals over a 6 h period, and the quantity of glycerol was measured.

[2] = tested on: human epidermis (normal human epithelial cells); assay: In vitro osmotic/hydrating properties on dehydrated human epidermis culture; format: cell-based; details: 20 μl, day 7, filmogen glycerol = preparation n° 2 in Example 5 (Orosol)
Excerpt: In the absence of in vivo models to mimic the osmotic exudation of hypotonic liquid from the oral or vaginal mucosa, a cell culture model of human epidermis was used which contains normal human epithelial cells grown on a polycarbonate filter in an air/liquid phase. Under optimal conditions, a multilayered cell culture, equivalent to the mucosal surface is obtained on a polycarbonate support. This support is placed on a sponge in contact with a defined amount of culture medium. The medium diffuses into the sponge and the filter, and supplies nutrients as well as hydration to the cells. Under these conditions, the cell culture can be kept alive for at least a week.
To create an experimental model of mucosa dryness, we inserted one or two extra filters between the cells and the sponge, thereby reducing the amount of liquid medium available to the cells. In absence of hydration, cells die, and the cell mortality can be measured with a vital dye MU. Cell mortality is proportional to the culture surface's dryness. […]
The aim of this study was to evaluate the hydrating properties of filmogen glycerol compared to regular glycerol. […] Each epidermis was washed by stirring the culture in culture medium for 20 seconds on days 1, 3 and 5, and cell viability was measured on day 7 using MU staining.

rat dorsal skin lesions = assay: In vivo rat wound healing; details: 0.2 ml per lesion for 7 consecutive days, filmogen glycerol as per the example N° 6
Procedure: The rat dorsal skin was shaved and 3 circular lesions, […] in diameter and depth, were made to the hypodermis with a dermatome. 0.2 ml of each test product was applied on each lesion for 7 consecutive days. Lesion diameter was measured every day and mean values were compared.

[3] = tested on: free virus particles present on the surface of labial herpes lesions; assay: Clinical study 3: free virus particles on labial herpes lesions (Tzank test); format: in vivo, human (patients); details: labial lesion smears, twice daily application
Procedure: Labial lesion smears were collected and mean virus concentration was measured by quantifying the number of multinucleated virus-infected giant cells in each lesion using Tzank test, and the mean amount of free virus particles was determined in both groups.

[4] = tested on: nasal sinus infection (rhinosinusitis); assay: Clinical study 4: rhinosinusitis; format: in vivo, human (patients)
Procedure: A 21-day controlled clinical trial of G-PCD compared to glycerol alone in patients suffering from acute symptoms of nasal sinus infection was performed.
The aim of this study was to evaluate the sinus-opening efficacy of G-PCD solution (32% glycerol, 1% plant PCDs in water) as per the example N° 5, compared to glycerol alone (32% glycerol in water). Among 127 patients suffering from acute and chronic sinusitis 109 were selected for the study. 58 patients were treated with G-PCD and 51 with glycerol. Products were administered as sprays (3 at each treatment application), 2-3 times per day for a maximum period of 21 days.
The parameters studied were: 1. Effect on nasal congestion and runny nose; 2. Effect on pain upon pressure around the nasal sinus surface; 3. Overall condition of the patient with respect to sinus infection; and 4. The influence on antibiotic therapy. […] Only 21% patients in the G-PCD group required antibiotic therapy for an average 7.41 days compared to 40% in the glycerol group for a period of 10.5 days (FIG. 8)

[5] = Osmolality and osmotic pressure of glycerol and seawater; format: physicochemical; details: pure glycerol
Excerpt: An injured skin or mucosa acts as a semi-permeable membrane and allows osmosis to occur. The flow of solvents across a semi-permeable membrane constitutes the osmotic flow or osmosis. The pressure required to achieve osmotic equilibrium is known as osmotic pressure. The higher the concentration of a […], the more osmotic pressure it exerts. Fresh water is considered isotonic with a density of 1000 kg/m^3. […] Osmotic pressure exerted by glycerol is nearly 10 times higher compared to seawater. The solute concentration of glycerol is also much higher compared to seawater. It is the total solute concentration in a solution that determines the osmotic flow of liquid, as osmosis is driven by differences in solute/solvent concentrations that exist across a semi-permeable membrane. The total solute concentration can be determined through the osmolality of the solution. […] Therefore, glycerol could have been a product of choice for application on infected surfaces in order to generate osmotic outflow of hypotonic liquid and to clean the injury. Unfortunately, the exudating hypotonic liquid immediately dilutes the glycerol and drains it from the wound surface within a few minutes, limiting these cleaning effects.

[6] = seawater containing […] NaCl; pure glycerol; cited from earlier work
[7] = spray 2-3 times per day, glycerol = 32% glycerol in water

## OCC(O)CO [glycerol]
[1]; 20 μl on epidermis placed on two filters, 37° C., 5% CO2, 72 h, MTT
  cell survival % after 72 h: 23.85 (±4.8) %
[1]; 72 h, positive controls without product 6.32%
  higher cell survival compared to the positive controls: 17.53%
[1]; glycerol control, free of any PCD extract
  cells die within 72 h: 60-70%
Diabetic ulcers; 1 h
  glycerol eliminated from the wound within 1 hour: ~92%
Diabetic ulcers; 2 h
  glycerol eliminated from the wound within 2 hours: 100%
[2]; 1 extra filter
  Mean score of cell survival after 1-week culture, partially dehydrated cultures: 62.3%
[2]; 2 extra filters
  Mean score of cell survival after 1-week culture, severely dehydrated cultures: 43.15%
Rat dorsal skin lesions
  Mean lesion size (diameter/day/lesion during 7 days): 2.95 cm^2
[3]
  mean amount of free virus particles, day 1: > 750
  mean amount of free virus particles, day 4: 635 (±17.51)
  mean amount of free virus particles, day 7: 542 (±22.35.)
  mean amount of free virus particles, day 14: 522 (±13.50)
[4]; 21-day trial
  patients requiring antibiotic therapy: 40%
[4]; patients who required antibiotics
  average duration of antibiotic therapy: 10.5 days
[4]; [7]
  nasal congestion symptom change after 30 minutes: −20.40%
  nasal congestion symptom change after 3 days: −19.09%
  nasal congestion symptom change after 7 days: −30.25%
  overall rhinosinusitis condition change after 30 minutes: −22.56%
  overall rhinosinusitis condition change after 3 days: +3.52%
  overall rhinosinusitis condition change after 7 days: −17.62%
  sinus pain symptom change after 30 minutes: −1.69%
  sinus pain symptom change after 3 days: −8.36%
  sinus pain symptom change after 7 days: −53.36%
[4]; within 30 minutes of first product administration
  increase in intensity of runny nose: 31.71%
[5]
  osmotic activity compared to seawater: ~18 times
[6]
  osmolality (total solute/mol wt/kg): 10.86 mols/kg
